Experimental findings from patent publication US20160046618A1, “Cyclopropyl Fused Thiazin-2-Amine Compounds as Beta-Secretase Inhibitors and Methods of Use” (AMGEN INC., priority 2014, published 2016) are described below.

Read-outs that look alike come from different tables or passages of the source. Where only a bound is given, the exact number is not on record here.

For one test, the target named is Recombinant Cat D (Homo sapiens (Human), UniProt P07339). As to the kind of experiment: In vitro enzymatic Cathepsin D (Cat D) FRET assay. Format: biochemical. The note with it: read-out: IC50 IP (μM) CatD. The essentials: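 Human Cat D expressed in CHO cells was incubated for one hour in 0.05 M citrate pH 3.5, 5 mM CHAPS, 10% DMSO final, with 20 nM quenched FRET peptide substrate. Reactions were stopped with Tris buffer raising pH to neutrality. Cleavage was read as fluorescence at excitation 500 nm, emission 580 nm.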

The next test deals with human recombinant BACE1 (Homo sapiens (Human), UniProt P56817). As to the kind of experiment: In vitro enzymatic BACE1 FRET assay. Format: biochemical. To be noted: read-out: IC50 IP (μM) BACE1 enzyme. The essentials:
(§1)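 Protease purified by Ni-NTA chromatography; start with FRET substrate (50 nM); incubate 1 h; quench with Tris to neutral pH; read fluorescence ex 488 / em 590 nm.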

The target of another test is human recombinant BACE2 (Homo sapiens (Human), UniProt Q9Y5Z0). As to the kind of experiment: In vitro enzymatic BACE2 FRET assay. The test is classed as biochemical. To be noted: read-out: IC50 IP (μM) BACE2 enzyme. The essentials:
as §1

Test [1] relates to Aβ40 in conditioned medium of cells stably expressing Amyloid Precursor Protein (APP). As to the kind of experiment: In vitro BACE-1 cell-based assay (Aβ40 sandwich ELISA). The note with it: read-out: IC50 IP (μM) BACE1 cell. The essentials: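 APP-expressing cells treated 24 h at 37 °C with compound in 10-point dose response (top 100 μM or 10 μM, 0.1% DMSO final). Secreted Aβ40 in conditioned medium quantified by sandwich ELISA (pAb40 capture, biotinylated 6E10 detection, time-resolved europium fluorescence); IC50 from percent inhibition versus concentration.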
A general note: In an ELISA, binding on a coated surface is turned into a signal by an enzyme label.

Chain of human recombinant BACE1 (P56817 46-501): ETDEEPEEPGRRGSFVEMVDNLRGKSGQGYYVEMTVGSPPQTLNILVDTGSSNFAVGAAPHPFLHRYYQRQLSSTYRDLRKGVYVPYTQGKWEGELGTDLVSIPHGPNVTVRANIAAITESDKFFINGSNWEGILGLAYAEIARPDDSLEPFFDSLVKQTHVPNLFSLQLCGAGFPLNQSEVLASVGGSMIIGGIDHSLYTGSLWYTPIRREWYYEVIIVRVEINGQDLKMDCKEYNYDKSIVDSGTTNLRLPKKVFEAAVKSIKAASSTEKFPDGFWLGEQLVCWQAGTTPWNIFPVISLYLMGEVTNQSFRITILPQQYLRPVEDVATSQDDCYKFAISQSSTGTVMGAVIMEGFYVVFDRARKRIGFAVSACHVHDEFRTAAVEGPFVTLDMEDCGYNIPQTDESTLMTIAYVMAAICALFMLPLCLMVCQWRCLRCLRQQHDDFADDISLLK
Chain of human recombinant BACE2 (Q9Y5Z0 63-518): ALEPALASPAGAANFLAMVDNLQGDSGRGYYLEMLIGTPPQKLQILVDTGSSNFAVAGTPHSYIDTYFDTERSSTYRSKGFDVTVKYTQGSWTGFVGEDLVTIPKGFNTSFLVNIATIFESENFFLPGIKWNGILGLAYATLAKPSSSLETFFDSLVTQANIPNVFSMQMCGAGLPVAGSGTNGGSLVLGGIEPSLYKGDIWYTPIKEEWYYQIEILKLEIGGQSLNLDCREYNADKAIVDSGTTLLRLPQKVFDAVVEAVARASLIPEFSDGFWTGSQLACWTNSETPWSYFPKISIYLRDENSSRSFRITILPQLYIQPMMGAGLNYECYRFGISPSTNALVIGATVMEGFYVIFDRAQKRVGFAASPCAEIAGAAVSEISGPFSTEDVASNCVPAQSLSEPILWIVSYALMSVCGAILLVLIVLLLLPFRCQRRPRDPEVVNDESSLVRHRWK
Chain of Recombinant Cat D (P07339 65-412): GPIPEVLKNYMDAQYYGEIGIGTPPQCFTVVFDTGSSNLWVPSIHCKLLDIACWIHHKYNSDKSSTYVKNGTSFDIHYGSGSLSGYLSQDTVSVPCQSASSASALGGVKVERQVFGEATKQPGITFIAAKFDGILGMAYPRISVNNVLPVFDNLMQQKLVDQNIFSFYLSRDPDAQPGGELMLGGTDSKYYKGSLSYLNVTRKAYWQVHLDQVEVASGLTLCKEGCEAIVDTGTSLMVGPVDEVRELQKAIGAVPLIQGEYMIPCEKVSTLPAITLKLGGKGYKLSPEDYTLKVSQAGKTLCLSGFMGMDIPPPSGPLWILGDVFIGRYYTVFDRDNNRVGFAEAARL

Regarding `NC1=N[C@](CF)(c2cc(NC(=O)c3ccc(Cl)cn3)ccc2F)[C@H]2C3CSC[C@@]32S1` (stereo partly drawn) [Example 962, N-(3-((4S,4aR,7aS)-2-amino-4-(fluoromethyl)-4a,4b,5,7-tetrahydro-4H-thieno[3′,4′:2,3]cyclopropa[1,2-e][1,3]thiazin-4-yl)-4-fluorophenyl)-5-chloropicolinamide], the IC50 (in general, the point on the concentration scale where inhibition reaches its midpoint) at Recombinant Cat D was determined as 21 µM; at human recombinant BACE1 it was 0.01 µM; at human recombinant BACE2, 0.0199 µM; in test [1], 0.104 µM.

`CC(=O)[C@]12C[C@H]1[C@@](C)(c1cc(NC(=O)c3ccc(Cl)cn3)cc(F)c1F)N=C(N)S2` [Example 906, N-(3-((1S,5S,6S)-1-acetyl-3-amino-5-methyl-2-thia-4-azabicyclo[4.1.0]hept-3-en-5-yl)-4,5-difluorophenyl)-5-chloro-2-pyridinecarboxamide]: the IC50 on Recombinant Cat D worked out at 693 µM; on human recombinant BACE1, 0.00404 µM; on human recombinant BACE2, 0.00174 µM; in test [1], 0.014 µM.

`C#CCOc1cnc2c(Nc3ccc(F)c([C@@]4(C)N=C(N)S[C@@]5(C(F)F)C[C@@H]45)c3)ncnc2c1` [Example 819, N-(3-((1S,5S,6S)-3-amino-1-(difluoromethyl)-5-methyl-2-thia-4-azabicyclo[4.1.0]hept-3-en-5-yl)-4-fluorophenyl)-7-(2-propyn-1-yloxy)pyrido[3,2-d]pyrimidin-4-amine]: the half-inhibitory concentration (IC50) on Recombinant Cat D stood at 34.2 µM; on human recombinant BACE1, 0.000821 µM; at human recombinant BACE2 it was 0.0412 µM; in test [1] it was 0.00175 µM.

With `C[C@]1(c2cc(NC(=O)c3ccc(OCc4ncco4)cn3)cc(F)c2F)N=C(N)S[C@@]2(S(C)(=O)=O)C[C@H]21` [Example 745, N-(3-((1R,5S,6S)-3-amino-5-methyl-1-(methylsulfonyl)-2-thia-4-azabicyclo[4.1.0]hept-3-en-5-yl)-4,5-difluorophenyl)-5-(1,3-oxazol-2-ylmethoxy)-2-pyridinecarboxamide], the IC50 on Recombinant Cat D is 972 µM; at human recombinant BACE1 it was 0.000898 µM; on human recombinant BACE2, 0.0257 µM; in test [1], 0.0175 µM.

For the molecule `COC[C@]12C[C@H]1[C@@](CF)(c1cc(NC(=O)c3ccc(Cl)cn3)ccc1F)N=C(N)S2` [Example 40, N-(3-((1S,5S,6S)-3-amino-5-(fluoromethyl)-1-(methoxymethyl)-2-thia-4-azabicyclo[4.1.0]hept-3-en-5-yl)-4-fluorophenyl)-5-chloro-2-pyridinecarboxamide], the IC50 on Recombinant Cat D (Cathepsin D FRET enzyme assay) worked out at 2810 µM; on human recombinant BACE1 (BACE1 FRET enzyme assay) it was 0.00553 µM; on human recombinant BACE2 (BACE2 FRET enzyme assay) it was 0.00121 µM; in test [1] (BACE1 cell-based assay), 0.0065 µM.

As for `COC[C@]12C[C@H]1[C@@](C)(c1cc(NC(=O)c3cnc(OCC4COC4)cn3)ccc1F)N=C(N)S2` [Example 1055, N-(3-((1S,5S,6S)-3-amino-1-(methoxymethyl)-5-methyl-2-thia-4-azabicyclo[4.1.0]hept-3-en-5-yl)-4-fluorophenyl)-5-(3-oxetanylmethoxy)-2-pyrazinecarboxamide], the IC50 at Recombinant Cat D stood at 1330 µM; on human recombinant BACE1 it was 0.0079 µM; at human recombinant BACE2, 0.498 µM; in test [1] it was 0.022 µM.

As for `C#CCOc1cnc2c(Nc3cc(F)c(F)c([C@@]4(C)N=C(N)S[C@@]5(C(N)=O)C[C@H]54)c3)ncnc2c1` [Example 917, (1S,5S,6S)-3-amino-5-(2,3-difluoro-5-((7-(2-propyn-1-yloxy)pyrido[3,2-d]pyrimidin-4-yl)amino)phenyl)-5-methyl-2-thia-4-azabicyclo[4.1.0]hept-3-ene-1-carboxamide], the IC50 at Recombinant Cat D was determined as 373 µM; on human recombinant BACE1, 0.000633 µM; at human recombinant BACE2, 0.0355 µM; in test [1] it was 0.000857 µM.

Take `CN(C)C(=O)CC[C@]12C[C@H]1[C@@](CF)(c1cc(NC(=O)c3ccc(Cl)cn3)ccc1F)N=C(N)S2` [Example 765, N-(3-((1S,5S,6S)-3-amino-1-(3-(dimethylamino)-3-oxopropyl)-5-(fluoromethyl)-2-thia-4-azabicyclo[4.1.0]hept-3-en-5-yl)-4-fluorophenyl)-5-chloropicolinamide]: the IC50 on Recombinant Cat D was 1070 µM; on human recombinant BACE1 it was 0.000706 µM; at human recombinant BACE2, below 0.00203 µM; in test [1] it was 0.0011 µM.

Regarding `COC[C@]12C[C@H]1[C@@](CF)(c1cc(Nc3nccc4cc(C#N)cnc34)cc(F)c1F)N=C(N)S2` [Example 47, 8-((3-((1S,5S,6S)-3-amino-5-(fluoromethyl)-1-(methoxymethyl)-2-thia-4-azabicyclo[4.1.0]hept-3-en-5-yl)-4,5-difluorophenyl)amino)-1,7-naphthyridine-3-carbonitrile], the IC50 was above 400 µM at Recombinant Cat D (Cathepsin D FRET enzyme assay), 0.00318 µM on human recombinant BACE1 (BACE1 FRET enzyme assay), 0.00187 µM on human recombinant BACE2 (BACE2 FRET enzyme assay) and 0.0162 µM in test [1] (BACE1 cell-based assay).

On to `C#CCOc1cnc(C(=O)Nc2ccc(F)c([C@@]3(C)N=C(N)S[C@@]4(C#N)C[C@H]43)c2)cn1` [Example 927, N-(3-((1S,5S,6S)-3-amino-1-cyano-5-methyl-2-thia-4-azabicyclo[4.1.0]hept-3-en-5-yl)-4-fluorophenyl)-5-(2-propyn-1-yloxy)-2-pyrazinecarboxamide], for which the concentration for half-maximal inhibition (IC50) on Recombinant Cat D came out at 126 µM; at human recombinant BACE1 it was 0.000266 µM; at human recombinant BACE2 it was 0.00448 µM; in test [1] it was 0.000667 µM.

Consider `COC[C@]12C[C@H]1[C@@](C)(c1cc(NC(=O)c3ncc(O[C@@H](C)c4ncco4)cc3C)cc(F)c1F)N=C(N)S2` [Example 687, N-(3-((1S,5S,6S)-3-amino-1-(methoxymethyl)-5-methyl-2-thia-4-azabicyclo[4.1.0]hept-3-en-5-yl)-4,5-difluorophenyl)-3-methyl-5-((1S)-1-(1,3-oxazol-2-yl)ethoxy)-2-pyridinecarboxamide], for which the half-maximal inhibitory concentration (IC50) on Recombinant Cat D is above 400 µM; on human recombinant BACE1, 0.117 µM; at human recombinant BACE2, 2.52 µM; in test [1], 0.569 µM.

With `COc1cnc2c(Nc3cc(F)c(F)c([C@@]4(C)N=C(N)S[C@H]5C[C@H]54)c3)ncnc2c1` [Example 897, N-(3-((1S,5S,6S)-3-amino-5-methyl-2-thia-4-azabicyclo[4.1.0]hept-3-en-5-yl)-4,5-difluorophenyl)-7-methoxypyrido[3,2-d]pyrimidin-4-amine], the IC50 at Recombinant Cat D is 1440 µM; on human recombinant BACE1, 0.035 µM; at human recombinant BACE2, 0.184 µM; in test [1], 0.038 µM.

As for `COC[C@]12C[C@H]1[C@@](C)(c1cc(NC(=O)c3cnc(OCC(F)F)cn3)cc(F)c1F)N=C(N)S2` [Example 1025, N-(3-((1S,5S,6S)-3-amino-1-(methoxymethyl)-5-methyl-2-thia-4-azabicyclo[4.1.0]hept-3-en-5-yl)-4,5-difluorophenyl)-5-(2,2-difluoroethoxy)-2-pyrazinecarboxamide], the IC50 is 1700 µM at Recombinant Cat D, 0.00169 µM on human recombinant BACE1, 0.13 µM on human recombinant BACE2 and 0.0142 µM in test [1].

Turning to `COC[C@]12C[C@H]1[C@@](C)(c1cc(Nc3ncnc4cc(OCc5nc(C)oc5C)cnc34)cc(F)c1F)N=C(N)S2` [Example 948, N-(3-((1S,5S,6S)-3-amino-1-(methoxymethyl)-5-methyl-2-thia-4-azabicyclo[4.1.0]hept-3-en-5-yl)-4,5-difluorophenyl)-7-((2,5-dimethyl-1,3-oxazol-4-yl)methoxy)pyrido[3,2-d]pyrimidin-4-amine], the IC50 at Recombinant Cat D came to 80.9 µM; on human recombinant BACE1 it was 0.00304 µM; on human recombinant BACE2, 0.144 µM; in test [1], 0.0102 µM.

Consider `CC(C)(CF)NC(=O)[C@]12C[C@H]1[C@@](C)(c1cc(NC(=O)c3cnc(OCC(F)(F)F)cn3)ccc1F)N=C(N)S2` [Example 983, (1S,5S,6S)-3-amino-N-(1-fluoro-2-methylpropan-2-yl)-5-(2-fluoro-5-(5-(2,2,2-trifluoroethoxy)pyrazine-2-carboxamido)phenyl)-5-methyl-2-thia-4-azabicyclo[4.1.0]hept-3-ene-1-carboxamide], for which the IC50 at Recombinant Cat D is 172 µM; on human recombinant BACE1, 0.00151 µM; on human recombinant BACE2, 0.174 µM; in test [1] it was 0.00736 µM.

As for `COC[C@]12C[C@H]1[C@@](C)(c1cc(Nc3nccc4nc(OCc5ncco5)cnc34)cnc1F)N=C(N)S2` [Example 849, N-(5-((1S,5S,6S)-3-amino-1-(methoxymethyl)-5-methyl-2-thia-4-azabicyclo[4.1.0]hept-3-en-5-yl)-6-fluoro-3-pyridinyl)-2-(1,3-oxazol-2-ylmethoxy)pyrido[3,4-b]pyrazin-5-amine], the IC50 on Recombinant Cat D amounted to 1530 µM; at human recombinant BACE1 it was 0.00343 µM; on human recombinant BACE2, 0.0463 µM; in test [1], 0.0017 µM.

Take `C#CCOc1cnc2c(Nc3cnc(F)c([C@@]4(C)N=C(N)S[C@@]5([C@@H](OC)C(F)(F)F)C[C@H]54)c3)nccc2n1` [Example 677, N-(5-((1S,5S,6S)-3-amino-5-methyl-1-((1S)-2,2,2-trifluoro-1-methoxyethyl)-2-thia-4-azabicyclo[4.1.0]hept-3-en-5-yl)-6-fluoro-3-pyridinyl)-2-(2-propyn-1-yloxy)pyrido[3,4-b]pyrazin-5-amine]: the IC50 at Recombinant Cat D is 306 µM; at human recombinant BACE1, 0.0016 µM; at human recombinant BACE2 it was 0.00948 µM; in test [1], 0.00305 µM.
